Measurements as given in ChEMBL document CHEMBL3227999, “Synthesis and biological properties of N2-substituted spin-labeled analogues of actinomycin D” (J Med Chem, 1979).
Active and inactive are the calls of the source. The calls are words filed in the database; no cut-off is given here. Numbered stars: 1 amine (or outer) side, 2 acyl side, 3 side chain; on linkers, the order of the positions; unused ones are H or OH. Bridge positions count the residues as written; N and C are the ends. Square brackets hold non-standard residues; d marks the D form. Peptide text beside a SMILES is read from it. I, II: the chains in the order shown. Actinocin(9to1) = Cc1c2oc3c(C)ccc(C(=O)[*:1])c3nc-2c(C(=O)[*:2])c(N)c1=O; NMeV = CN[C@H](C(=O)O)C(C)C; Sar = CNCC(=O)O

How the values were obtained:
Mus musculus [1] = assay: Toxicity in mouse P388 cells allografted CDF1 mouse assessed as mortality at 0.4 mg/kg, ip administered on day 1, 5 and 9; type: organism-based; set-up: dose 0.4 mg/kg, route intraperitoneal; settings: in vivo
Mus musculus [2] = assay: Toxicity in mouse P388 cells allografted CDF1 mouse assessed as mortality at 0.27 mg/kg, ip administered on day 1, 5 and 9; type: organism-based; set-up: dose 0.27 mg/kg, route intraperitoneal; settings: in vivo
Mus musculus [3] = assay: Toxicity in mouse P388 cells allografted CDF1 mouse assessed as weight loss at 0.18 mg/kg, ip administered on day 1, 5 and 9; type: organism-based; set-up: dose 0.18 mg/kg, route intraperitoneal; settings: in vivo
Calf thymus DNA [4] = assay: Binding affinity to calf thymus DNA at 1 x 10^-5 M after 30 mins by circular dichroism analysis; type: nucleic-acid assay; settings: Bos taurus
Calf thymus DNA [5] = assay: Binding affinity to calf thymus DNA at 1 x 10^-5 M by thermal denaturation assay; type: nucleic-acid assay; settings: Bos taurus
[6] = target: T1, Bacterial DNA-directed RNA polymerase (Bacteria) (UniProt P0A8V2+P0A7Z4+P0A8T7+P0A800); assay: Inhibition of Escherichia coli DNA-dependent RNA polymerase at 20 ug/ml using calf thymus DNA as primer; type: protein-complex assay
[7] = target: T1, Bacterial DNA-directed RNA polymerase (Bacteria); assay: Inhibition of Escherichia coli DNA-dependent RNA polymerase at 20 ug/ml using Micrococcus luteus DNA as primer; type: protein-complex assay
[8] = target: T1, Bacterial DNA-directed RNA polymerase (Bacteria); assay: Inhibition of Escherichia coli DNA-dependent RNA polymerase at 10 ug/ml using calf thymus DNA as primer; type: protein-complex assay
[9] = target: T1, Bacterial DNA-directed RNA polymerase (Bacteria); assay: Inhibition of Escherichia coli DNA-dependent RNA polymerase at 10 ug/ml using Micrococcus luteus DNA as primer; type: protein-complex assay
[10] = target: T1, Bacterial DNA-directed RNA polymerase (Bacteria); assay: Inhibition of Escherichia coli DNA-dependent RNA polymerase at 5 ug/ml using calf thymus DNA as primer; type: protein-complex assay
[11] = target: T1, Bacterial DNA-directed RNA polymerase (Bacteria); assay: Inhibition of Escherichia coli DNA-dependent RNA polymerase at 5 ug/ml using Micrococcus luteus DNA as primer; type: protein-complex assay
[12] = target: T1, Bacterial DNA-directed RNA polymerase (Bacteria); assay: Inhibition of Escherichia coli DNA-dependent RNA polymerase at 2.5 ug/ml using calf thymus DNA as primer; type: protein-complex assay
[13] = target: T1, Bacterial DNA-directed RNA polymerase (Bacteria); assay: Inhibition of Escherichia coli DNA-dependent RNA polymerase at 2.5 ug/ml using Micrococcus luteus DNA as primer; type: protein-complex assay
[14] = target: T1, Bacterial DNA-directed RNA polymerase (Bacteria); assay: Inhibition of Escherichia coli DNA-dependent RNA polymerase at 1 ug/ml using calf thymus DNA as primer; type: protein-complex assay
[15] = target: T1, Bacterial DNA-directed RNA polymerase (Bacteria); assay: Inhibition of Escherichia coli DNA-dependent RNA polymerase at 1 ug/ml using Micrococcus luteus DNA as primer; type: protein-complex assay
[16] = target: T1, Bacterial DNA-directed RNA polymerase (Bacteria); assay: Inhibition of Escherichia coli DNA-dependent RNA polymerase at 0.5 ug/ml using calf thymus DNA as primer; type: protein-complex assay
[17] = target: T1, Bacterial DNA-directed RNA polymerase (Bacteria); assay: Inhibition of Escherichia coli DNA-dependent RNA polymerase at 0.5 ug/ml using Micrococcus luteus DNA as primer; type: protein-complex assay
[18] = target: T1, Bacterial DNA-directed RNA polymerase (Bacteria); assay: Inhibition of Escherichia coli DNA-dependent RNA polymerase at 0.25 ug/ml using calf thymus DNA as primer; type: protein-complex assay
[19] = target: T1, Bacterial DNA-directed RNA polymerase (Bacteria); assay: Inhibition of Escherichia coli DNA-dependent RNA polymerase at 0.25 ug/ml using Micrococcus luteus DNA as primer; type: protein-complex assay
[20] = target: T1, Bacterial DNA-directed RNA polymerase (Bacteria); assay: Inhibition of Escherichia coli DNA-dependent RNA polymerase at 0.1 ug/ml using calf thymus DNA as primer; type: protein-complex assay
[21] = target: T1, Bacterial DNA-directed RNA polymerase (Bacteria); assay: Inhibition of Escherichia coli DNA-dependent RNA polymerase at 0.1 ug/ml using Micrococcus luteus DNA as primer; type: protein-complex assay
[22] = target: T1, Bacterial DNA-directed RNA polymerase (Bacteria); assay: Inhibition of Escherichia coli DNA-dependent RNA polymerase at 0.05 ug/ml using calf thymus DNA as primer; type: protein-complex assay
[23] = target: T1, Bacterial DNA-directed RNA polymerase (Bacteria); assay: Inhibition of Escherichia coli DNA-dependent RNA polymerase at 0.05 ug/ml using Micrococcus luteus DNA as primer; type: protein-complex assay
[24] = target: Bacterial DNA-directed RNA polymerase (Bacteria, UniProt P0A7Z4+P0A800+P0A8T7+P0A8V2); assay: Inhibition of Escherichia coli DNA-dependent RNA polymerase; type: protein-complex assay
L1210 [25] = assay: Cytotoxicity against mouse L1210 cells at 10 ug/ml after 48 hrs; type: functional; settings: L1210, 48 h
L1210 [26] = assay: Cytotoxicity against mouse L1210 cells at 5 ug/ml after 48 hrs; type: functional; settings: L1210, 48 h
L1210 [27] = assay: Cytotoxicity against mouse L1210 cells at 1 ug/ml after 48 hrs; type: functional; settings: L1210, 48 h
L1210 [28] = assay: Cytotoxicity against mouse L1210 cells at 0.5 ug/ml after 48 hrs; type: functional; settings: L1210, 48 h
L1210 [29] = assay: Cytotoxicity against mouse L1210 cells at 0.1 ug/ml after 48 hrs; type: functional; settings: L1210, 48 h
L1210 [30] = assay: Cytotoxicity against mouse L1210 cells at 0.05 ug/ml after 48 hrs; type: functional; settings: L1210, 48 h
L1210 [31] = assay: Cytotoxicity against mouse L1210 cells at 0.01 ug/ml after 48 hrs; type: functional; settings: L1210, 48 h
L1210 [32] = assay: Cytotoxicity against mouse L1210 cells at 0.001 ug/ml after 48 hrs; type: functional; settings: L1210, 48 h
P388 [33] = assay: Antitumor activity against mouse P388 cells allografted in CDF1 mouse assessed as survival at 0.6 mg/kg, ip administered on day 1, 5 and 9; type: functional; settings: route intraperitoneal
P388 [34] = assay: Antitumor activity against mouse P388 cells allografted in CDF1 mouse assessed as survival at 0.4 mg/kg, ip administered on day 1, 5 and 9; type: functional; settings: route intraperitoneal
P388 [35] = assay: Antitumor activity against mouse P388 cells allografted in CDF1 mouse assessed as survival at 0.27 mg/kg, ip administered on day 1, 5 and 9; type: functional; settings: route intraperitoneal
P388 [36] = assay: Antitumor activity against mouse P388 cells allografted in CDF1 mouse assessed as survival at 0.18 mg/kg, ip administered on day 1, 5 and 9; type: functional; settings: route intraperitoneal
P388 [37] = assay: Antitumor activity against mouse P388 cells allografted in CDF1 mouse assessed as survival at 0.12 mg/kg, ip administered on day 1, 5 and 9; type: functional; settings: route intraperitoneal
P388 [38] = assay: Antitumor activity against mouse P388 cells allografted in CDF1 mouse assessed as survival at 0.08 mg/kg, ip administered on day 1, 5 and 9; type: functional; settings: route intraperitoneal
Mus musculus [39] = assay: Toxicity in mouse P388 cells allografted CDF1 mouse assessed as mortality at 0.6 mg/kg, ip administered on day 1, 5 and 9; type: organism-based; set-up: dose 0.6 mg/kg, route intraperitoneal; settings: in vivo

T1 sequence (P0A7Z4 whole entry partner): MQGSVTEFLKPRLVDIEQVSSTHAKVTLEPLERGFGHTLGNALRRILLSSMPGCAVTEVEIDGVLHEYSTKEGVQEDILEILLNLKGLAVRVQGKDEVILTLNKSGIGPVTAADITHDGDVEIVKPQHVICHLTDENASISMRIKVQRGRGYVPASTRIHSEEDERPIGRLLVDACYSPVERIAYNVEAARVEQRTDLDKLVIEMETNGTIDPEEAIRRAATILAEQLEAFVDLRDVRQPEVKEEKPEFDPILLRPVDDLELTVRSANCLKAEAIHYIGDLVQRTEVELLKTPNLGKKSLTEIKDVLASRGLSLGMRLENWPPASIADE
T1 sequence (P0A800 2-91 partner limits assumed): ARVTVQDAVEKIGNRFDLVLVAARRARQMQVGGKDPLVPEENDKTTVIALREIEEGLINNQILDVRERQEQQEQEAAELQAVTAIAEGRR
T1 sequence (P0A8T7 whole entry partner): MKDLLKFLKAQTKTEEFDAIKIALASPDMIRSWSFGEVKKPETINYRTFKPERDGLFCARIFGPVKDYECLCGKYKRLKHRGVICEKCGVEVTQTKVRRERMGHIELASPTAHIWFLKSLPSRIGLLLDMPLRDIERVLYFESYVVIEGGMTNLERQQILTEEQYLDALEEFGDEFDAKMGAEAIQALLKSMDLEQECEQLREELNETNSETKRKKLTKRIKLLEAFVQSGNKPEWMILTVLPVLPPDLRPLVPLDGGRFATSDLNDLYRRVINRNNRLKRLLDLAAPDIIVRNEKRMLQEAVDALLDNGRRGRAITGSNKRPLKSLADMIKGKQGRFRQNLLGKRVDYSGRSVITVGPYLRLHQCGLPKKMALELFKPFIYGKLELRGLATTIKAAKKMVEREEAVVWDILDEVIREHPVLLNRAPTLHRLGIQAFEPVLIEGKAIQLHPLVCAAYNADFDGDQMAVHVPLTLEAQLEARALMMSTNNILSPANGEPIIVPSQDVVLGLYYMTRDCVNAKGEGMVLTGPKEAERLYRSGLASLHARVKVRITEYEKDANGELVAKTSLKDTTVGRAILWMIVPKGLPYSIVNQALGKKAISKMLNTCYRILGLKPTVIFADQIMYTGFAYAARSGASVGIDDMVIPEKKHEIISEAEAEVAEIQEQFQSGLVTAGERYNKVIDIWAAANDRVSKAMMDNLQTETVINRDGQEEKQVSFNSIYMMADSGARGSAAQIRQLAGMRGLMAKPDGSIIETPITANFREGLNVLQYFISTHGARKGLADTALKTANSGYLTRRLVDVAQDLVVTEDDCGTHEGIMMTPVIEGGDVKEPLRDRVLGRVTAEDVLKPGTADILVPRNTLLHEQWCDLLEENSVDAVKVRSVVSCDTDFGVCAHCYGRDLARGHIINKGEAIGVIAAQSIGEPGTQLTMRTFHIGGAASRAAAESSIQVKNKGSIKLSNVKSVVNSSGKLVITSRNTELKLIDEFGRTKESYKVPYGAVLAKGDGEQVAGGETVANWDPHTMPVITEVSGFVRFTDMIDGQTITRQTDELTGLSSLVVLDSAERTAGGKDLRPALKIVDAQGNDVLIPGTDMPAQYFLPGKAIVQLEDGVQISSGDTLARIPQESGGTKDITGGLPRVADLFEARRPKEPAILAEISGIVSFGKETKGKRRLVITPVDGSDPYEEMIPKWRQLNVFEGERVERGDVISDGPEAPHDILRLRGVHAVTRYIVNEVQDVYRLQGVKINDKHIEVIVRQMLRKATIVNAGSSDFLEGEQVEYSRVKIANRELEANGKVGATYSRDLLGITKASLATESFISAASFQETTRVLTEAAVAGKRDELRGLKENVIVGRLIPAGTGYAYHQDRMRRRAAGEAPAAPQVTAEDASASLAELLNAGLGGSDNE
T1 sequence (P0A8V2 whole entry): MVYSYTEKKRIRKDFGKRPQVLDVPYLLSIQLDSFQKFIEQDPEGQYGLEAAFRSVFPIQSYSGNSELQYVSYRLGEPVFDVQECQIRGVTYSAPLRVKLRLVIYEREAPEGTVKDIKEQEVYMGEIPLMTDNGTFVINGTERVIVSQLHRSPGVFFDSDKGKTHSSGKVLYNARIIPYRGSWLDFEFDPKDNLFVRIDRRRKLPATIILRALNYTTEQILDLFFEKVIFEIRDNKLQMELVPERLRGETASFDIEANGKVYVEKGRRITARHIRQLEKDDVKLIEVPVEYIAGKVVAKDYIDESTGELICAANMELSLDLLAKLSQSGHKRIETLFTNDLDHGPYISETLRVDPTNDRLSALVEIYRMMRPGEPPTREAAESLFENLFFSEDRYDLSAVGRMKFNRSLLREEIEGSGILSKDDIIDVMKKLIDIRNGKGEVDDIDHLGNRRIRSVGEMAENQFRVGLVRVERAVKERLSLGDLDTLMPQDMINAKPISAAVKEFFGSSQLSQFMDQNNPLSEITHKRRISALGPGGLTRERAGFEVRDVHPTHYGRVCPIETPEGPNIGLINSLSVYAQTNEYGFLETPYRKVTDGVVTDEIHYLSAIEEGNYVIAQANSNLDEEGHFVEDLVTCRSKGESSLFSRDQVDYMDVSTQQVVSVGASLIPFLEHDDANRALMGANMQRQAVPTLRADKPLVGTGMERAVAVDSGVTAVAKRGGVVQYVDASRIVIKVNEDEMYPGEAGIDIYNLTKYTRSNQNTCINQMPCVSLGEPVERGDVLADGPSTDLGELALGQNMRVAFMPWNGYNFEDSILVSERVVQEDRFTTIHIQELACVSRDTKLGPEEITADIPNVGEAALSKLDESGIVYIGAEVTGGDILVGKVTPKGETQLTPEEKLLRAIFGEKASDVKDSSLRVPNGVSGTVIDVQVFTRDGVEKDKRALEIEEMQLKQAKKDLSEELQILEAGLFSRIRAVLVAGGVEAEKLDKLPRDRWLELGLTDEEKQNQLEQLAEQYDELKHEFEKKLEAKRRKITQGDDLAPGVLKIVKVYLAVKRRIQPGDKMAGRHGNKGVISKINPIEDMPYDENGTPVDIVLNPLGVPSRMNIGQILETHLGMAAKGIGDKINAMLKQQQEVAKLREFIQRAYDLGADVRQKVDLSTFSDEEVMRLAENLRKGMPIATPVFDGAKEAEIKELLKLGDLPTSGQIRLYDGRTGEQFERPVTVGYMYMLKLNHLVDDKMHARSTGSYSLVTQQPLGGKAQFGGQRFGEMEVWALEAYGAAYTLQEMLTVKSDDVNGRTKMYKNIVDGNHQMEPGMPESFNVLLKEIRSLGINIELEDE

Cc1c2oc3c(C)ccc(C(=O)N[C@@H]4C(=O)N[C@H](C(C)C)C(=O)N5CCC[C@H]5C(=O)N(C)CC(=O)N(C)[C@@H](C(C)C)C(=O)O[C@@H]4C)c3nc-2c(C(=O)N[C@@H]2C(=O)N[C@H](C(C)C)C(=O)N3CCC[C@H]3C(=O)N(C)CC(=O)N(C)[C@@H](C(C)C)C(=O)O[C@@H]2C)c(N)c1=O [DACTINOMYCIN] (I: T[dV]P[Sar][NMeV] / II: T[dV]P[Sar][NMeV]; ester I:1-I:C, II:1-II:C; linker I:N-II:N via Actinocin(9to1))
Activity (Mus musculus [1]): Toxic | Activity (Mus musculus [2]): Toxic | Activity (Mus musculus [3]): Toxic | Activity (Calf thymus DNA [4]): Active | ΔTm (Calf thymus DNA [5]): 8.7 °C | inhibition [6]: 100% | inhibition [7]: 99% | inhibition [8]: 96% | inhibition [9]: 99% | inhibition [10]: 93% | inhibition [11]: 95% | inhibition [12]: 89% | inhibition [13]: 92% | inhibition [14]: 79% | inhibition [15]: 72% | inhibition [16]: 61% | inhibition [17]: 54% | inhibition [18]: 62% | inhibition [19]: 44% | inhibition [20]: 30% | inhibition [21]: 16% | inhibition [22]: 17% | inhibition [23]: 7% | IC50 [24]: 159 nM | inhibition at 10 µg/mL (L1210 [25]): 98% | inhibition at 5 µg/mL (L1210 [26]): 99% | inhibition at 1 µg/mL (L1210 [27]): 97% | inhibition at 0.5 µg/mL (L1210 [28]): 99% | inhibition at 0.1 µg/mL (L1210 [29]): 78% | inhibition at 0.05 µg/mL (L1210 [30]): 78% | inhibition at 0.01 µg/mL (L1210 [31]): 57% | inhibition at 0.001 µg/mL (L1210 [32]): 51% | Survival (P388 [33]): 5 days | T/C (P388 [33]): 48% | Survival (P388 [34]): 8 days | T/C (P388 [34]): 76% | Survival (P388 [35]): 10 days | T/C (P388 [35]): 95% | Survival (P388 [36]): 18 days | T/C (P388 [36]): 171% | Survival (P388 [37]): 19 days | T/C (P388 [37]): 181% | Survival (P388 [38]): 15 days | T/C (P388 [38]): 143% | Activity (Mus musculus [39]): Toxic
